Test results published in US11046701B2, “Salt of cetagliptin, preparation method thereof, pharmaceutical composition, and use thereof” (CGENETECH (SUZHOU, CHINA) CO., LTD., priority 2018, dated 2021).
Where two headings read alike, the source gives them in different places.

Key:
[1] = Stability of phosphate crystal form B under storage conditions (XRPD, HPLC purity); assay type: physicochemical
Description: High performance liquid chromatography (HPLC): the high performance liquid chromatogram was acquired by Agilent 1260 HPLC.
The crystal form B of phosphate prepared in this example was put into a 1.5 mL small bottle and the small bottles was placed under different conditions: 40° C./75% RH or 25° C./60% RH for one week in an open state, or 80° C. for 24 h. The obtained samples were subjected to XRPD test and HPLC test, and the sealed samples placed at 5° C. were used as reference samples (Initial) for HPLC purity test. […] The weight gain at 25° C./80% RH is 6.5% compared to 0% RH.

[2] = PK/PD experiment of ICR mice: plasma concentration; assay type: in vivo, CD-1 (ICR) mice; settings: CD-1 (ICR), mouse; for AUC: read-out: Drug exposure (AUCeff0-3 h)
Description: Experimental animals: CD-1 (ICR) mice aged for 4 weeks and weighed for about 18-22 g.
Grouping and administration scheme: the mice were fed adaptively, randomly grouped according to the weight on the day before experiment, and fasted overnight. […] After the experimental grouping, the group provided separately for detecting the initial basic value of DPPIV was carried out blood sampling, and other animals were intragastrically administrated with the drug at an administration volume of 10 mL/kg, the blood was sampled after the administration, and all other animals were stimulated with glucose administration; the blood was sampled at 20 min, 40 min, 60 min and 120 min after the glucose administration, respectively, and the plasma concentration and the DPPIV activity were detected by using plasma.
Research on pharmacodynamics-plasma concentration correlation: blood samples were collected at time points of 1 h, 1.33 h, 1.67 h, 2 h and 3 h after administration, and the plasma concentration was measured. The drug exposure value (AUCeff0-3h) of the DPPIV-P1 increased with the increase of dose, which was 16.09 ng·h/mL, 52.65 ng·h/mL, 162.3 ng·h/mL and 542.28 ng·h/mL, respectively.

With `C[C@@H]1c2cnc(C(F)(F)F)n2CCN1C(=O)C[C@H](N)Cc1cc(F)c(F)cc1F` [DPPIV-P1, (8R)-7-[(3R)-3-amino-1-oxo-4-(2,4,5-trifluorophenyl)butyl]-5,6,7,8-tetrahydro-8-methyl-3-(trifluoromethyl)imidazo[1,5-a]pyrazine] the Crystal form ([1]; 25° C./60% RH, one week) was “Phosphate crystal form B”, the “Purity (area %)” value ([1]; 25° C./60% RH, one week, open) was 99.65 area % and the Crystal form ([1]; 40° C./75% RH, one week) was “Phosphate crystal form B”. The “Purity (area %)” value ([1]; 40° C./75% RH, one week, open) was 99.64 area %, the Appearance ([1]; 80° C. for 24 h) was “changed from white solid into yellow solid” and the Crystal form ([1]; 80° C., 24 h) was “Phosphate crystal form B”. For the same molecule, the “Purity (area %)” value ([1]; 80° C., 24 h) was 99.48 area %, the Crystal form ([1]; Initial) was “Phosphate crystal form B” and the “Purity (area %)” value ([1]; Initial (sealed reference sample placed at 5° C.)) was 99.78 area %. It also gave a concentration at 1 h ([2]; oral dose 0.1 mg/kg) of 8.28 ± 0.96 ng/mL, a concentration at 1.33 h ([2]; oral dose 0.1 mg/kg) of 6.51 ± 1.58 ng/mL and a concentration at 1.67 h ([2]; oral dose 0.1 mg/kg) of 6.46 ± 0.2 ng/mL. The concentration at 2 h ([2]; oral dose 0.1 mg/kg) was 5.73 ± 0.65 ng/mL, the concentration at 3 h ([2]; oral dose 0.1 mg/kg) was 4.85 ± 0.25 ng/mL and the AUC ([2]; oral dose 0.1 mg/kg) was 16.1 ng·h/mL. For the same molecule, the concentration at 1 h ([2]; oral dose 0.3 mg/kg) was 26.4 ± 6.47 ng/mL, the concentration at 1.33 h ([2]; oral dose 0.3 mg/kg) was 25 ± 3.42 ng/mL and the concentration at 1.67 h ([2]; oral dose 0.3 mg/kg) was 17.9 ± 2.43 ng/mL. For the same molecule, the concentration at 2 h ([2]; oral dose 0.3 mg/kg) was 20.5 ± 0.32 ng/mL, the concentration at 3 h ([2]; oral dose 0.3 mg/kg) was 14.2 ± 1.48 ng/mL and the AUC ([2]; oral dose 0.3 mg/kg) was 52.6 ng·h/mL. It also gave a concentration at 1 h ([2]; oral dose 1 mg/kg) of 72.8 ± 7.04 ng/mL, a concentration at 1.33 h ([2]; oral dose 1 mg/kg) of 71.9 ± 2.71 ng/mL and a concentration at 1.67 h ([2]; oral dose 1 mg/kg) of 75.2 ± 6.09 ng/mL. For the same molecule, the concentration at 2 h ([2]; oral dose 1 mg/kg) was 57.9 ± 2.06 ng/mL, the concentration at 3 h ([2]; oral dose 1 mg/kg) was 52.2 ± 5.54 ng/mL and the AUC ([2]; oral dose 1 mg/kg) was 162 ng·h/mL. It also gave a concentration at 1 h ([2]; oral dose 3 mg/kg) of 231 ± 16.6 ng/mL, a concentration at 1.33 h ([2]; oral dose 3 mg/kg) of 292 ± 47.2 ng/mL and a concentration at 1.67 h ([2]; oral dose 3 mg/kg) of 242 ± 17.7 ng/mL. For the same molecule, the concentration at 2 h ([2]; oral dose 3 mg/kg) was 201 ± 44.7 ng/mL, the concentration at 3 h ([2]; oral dose 3 mg/kg) was 151 ± 26.4 ng/mL and the AUC ([2]; oral dose 3 mg/kg) was 542 ng·h/mL.
